Results on one compound are retold here after publication PMC10818546, “CYP1-Activation and Anticancer Properties of Synthetic Methoxylated Resveratrol Analogues” (Molecules, 2024).

Series [1] has as its system MDA468. In words: MTT cytotoxicity assay, MDA468 cells. The series is classed as cell-based, human. The conditions noted are these: for TS = tumour selectivity = IC50 MCF10A/IC50 MDA468: ratio of IC50 values. The procedure: (§1) The antiproliferative activity of the resveratrol analogues was investigated using a human breast cell line panel, which has been characterised for CYP1 expression in our laboratories. IC50 values for both cis- and trans-isomers were determined using a standard 3-[4,5-dimethylthiazol-2-yl]-2,5-diphenyl tetrazolium bromide (MTT) cell viability assay and are shown in Table 1 (trans-stilbene analogues) and Table 2 (cis-stilbene analogues).
MDA468 cells represent an aggressive multi-drug-resistant tumour type and are ER negative but are aryl hydrocarbon (Ah) receptor positive in the presence of TCDD [46].
(§2) A standard MTT (3-[4,5-dimethylthiazol-2-yl]-2,5-diphenyl tetrazolium bromide) cell viability assay was employed to evaluate the cytotoxicity of the stilbenes prepared. The MTT assay is a rapid quantitative spectrophotometric method for determining cell growth (viability) due to necrosis or apoptosis in monolayer-cultured cell lines in response to external factors. It is widely employed to evaluate the cytotoxicity of potential medicinal agents.
(§3) MCF7 cells were grown in RPMI-1640 medium with phenol red and 10% (v/v) heat-inactivated (heated to 56 °C for 45 min) foetal calf serum. MDA-468 cells were grown in RPMI-1640 medium with 10% (v/v) heat-inactivated foetal calf serum and L-glutamine (2 mM) without phenol red. MCF-10A cells were grown in Dulbecco’s modified Eagle’s medium/ Ham’s F-12 medium (1:1) with 5% (v/v) heat-inactivated foetal calf serum, epidermal growth factor (20 ng/mL), insulin ([…]) and hydrocortisone (500 ng/mL). Cells were maintained at 37 °C, 5% CO2/95% air with 100% humidity and passaged every 2–3 days using trypsin EDTA solution (0.25% w/v). Adhered cells at sub confluence were harvested for experimental use.
(§4) Aliquots of cell suspensions (100 µL at 2 × 10^3 cells per ml) were dispensed into sterile 96-well microtiter flat-bottomed plates. For the MDA468 and MCF10A cell lines, the plates were incubated at 37 °C, 5% CO2/95% air with 100% humidity for 24 h prior to the addition of test compounds. For MCF7 cells, after allowing approximately 4 h for cells to adhere, 100 µL of medium containing TCDD (from 100 mM stock in DMSO) or medium with 0.2% (v/v) DMSO was added to give a final concentration of 10 nM TCDD and 0.1% (v/v) DMSO. After 24 h, the medium was aspirated and replaced with fresh medium (100 µL) before the addition of test compounds.
(§5) Then, 100 µL aliquots of test compounds were added within 30 min into the wells from a 100 mM stock solution in DMSO and serially diluted to give final concentrations of […], 0.01, 0.003, 0.001 and 0.0003 µM. […] The cells were allowed to grow for 96 h at 5% CO2, 37 °C, to give 80–90% confluence in the control wells, after which 50 µL of 2 mg/mL MTT (final concentration 0.4 mg/mL) in sterile phosphate buffer was added to each well and the plates were further incubated for 2 h. All medium was aspirated and the formazan precipitate generated by viable cells was solubilised by 150 µL of DMSO. All the plates were vortexed and the absorbance at 540 nm was determined using a SpectraMax M5 plate reader (Molecular Devices, Wokingham, UK).
(§6) Results were expressed as a percentage of the control value versus the negative logarithm of the molar drug concentration range using GraphPad Prism (Version 5.00). Relative toxicities of each compound within each cell line were expressed as 50% of growth inhibition (IC50). All determinations were carried out in quadruplicate.
(In general: Tetrazolium assays rely on reduction of a dye to a coloured formazan, in cell work by metabolically active cells.)

The subject of series [2] is MCF7. The series can be described thus: MTT cytotoxicity assay, MCF7 cells (uninduced). The conditions noted are these: Homo sapiens, MCF7, 96 h, read-out: IC50 MCF7. It counts as cell-based, human. As for the experimental part:
as §1
(§7) MCF7 cells are both ER positive and Ah receptor positive and have been well documented for their CYP1 expression, and it is known that treatment with TCDD elevates CYP1A1 and CYP1B1 expression. The cells were treated with DMSO (0.1%) for 24 h for constitutive expression, whereas for inducible CYP1 expression, the cells were treated with TCDD (10 nM) for 24 h.
as §2, §3, §4, §5, §6

The test system of series [3] is MDA231. The series can be described thus: MTT cytotoxicity assay, MDA231 cells. The series is classed as cell-based. The conditions noted are these: Homo sapiens, MDA-MB-231; triple negative breast tumour cell line. As for the experimental part:
DMU212 was also evaluated for cytotoxic activity in the aggressive, triple negative breast tumour cell line MDA231. This cell line has been reported to only weakly express CYP1A1 but constitutively express CYP1B1 [33]. […] However further studies would be required to confirm this statement.
MDA231 breast cancer cell line represents an aggressive tumour type. Treatment of this ER-negative and Ah receptor-positive cell line with TCDD has been reported to only weakly induce CYP1A1 mRNA expression but enhance the constitutive CYP1B1 expression. Other researchers have reported the ratio of active CYP1A1/CYP1B1 protein as 16/84 ratio in MDA231 [32].
A standard MTT (3-[4,5-dimethylthiazol-2-yl]-2,5-diphenyl tetrazolium bromide) cell viability assay was employed to evaluate the cytotoxicity of the stilbenes prepared. The MTT assay is a rapid quantitative spectrophotometric method for determining cell growth (viability) due to necrosis or apoptosis in monolayer-cultured cell lines in response to external factors. […]
Then, 100 µL aliquots of test compounds were added within 30 min into the wells from a 100 mM stock solution in DMSO and serially diluted to give final concentrations of […], 0.01, 0.003, 0.001 and 0.0003 µM. […] All the plates were vortexed and the absorbance at 540 nm was determined using a SpectraMax M5 plate reader (Molecular Devices, Wokingham, UK). […]

Series [4] relates to MCF10A. The series can be described thus: MTT cytotoxicity assay, MCF10A non-tumour control cells. The series is classed as cell-based. The conditions noted are these: Homo sapiens, MCF-10A, 96 h, read-out: IC50 MCF10A. As for the experimental part:
as §1
MCF10A cells are non-tumourigenic human mammary epithelial in origin which have been spontaneously immortalised without chemical intervention. CYP1 activity in MCF10A cells is negligible. […] Thus, MCF10A cell line is commonly used as a control in cytotoxicity assays.
as §2, §3, §4, §5, §6

For series [5] the following is noted: mouse, 0.2% (w/w) of the diet for 14 weeks; cited from earlier work.
Series [6] relates to CYP1 enzymes (CYP1A1, CYP1A2, CYP1B1). In words: Incubation with human CYP1 Supersomes, HPLC analysis. It counts as in vitro ADME. To be noted: NADPH, 37 °C, 20 min. As for the experimental part: The CYPs isozyme panel used in this study were prepared from transformed insect cells expressing human CYPs (CYP1A1, CYP1A2 or CYP1B1) with co-expression of human NADPH reductase (Supersomes^TM). […] The general procedure was as follows: DMU212 was separately incubated with CYP1A1, CYP1A2, CYP1B1, CYP3A4 and non-CYP-expressing Supersomes^TM in the presence of phosphate buffer and NADPH at 37 °C. Samples were taken at regular intervals of 5 min over a 20 min period, and the enzymatic reaction in the sample was terminated immediately. Following centrifugation, the supernatants were removed and analysed by HPLC.
After 10 min of analysis, a linear gradient was initiated with the acetonitrile content rising to 70% over 5 min and with the 50 mM ammonium acetate decreasing accordingly. An equilibration time of 6 min was allowed between each sample. Analysis was conducted with a Jasco (Jasco UK limited) analytical system consisting of an AS841 autosampler, PU980 pump and LG low-pressure tertiary mixing valve, FP1500 fluorescence detector (JASCO UK Ltd., Heckmondwike, UK), column heater/ chiller (Jones Chromatography), and DG440 in-line degasser (Phenomenex, UK). Analytical data were collected using Borwin HPLC software (version 1.5), For the detection of DMU215, an in-line photoreactivity cell was used (Beam Boost^TM, Advanced Separations Technology Incorporated).

For series [7], the system named is MCF7 (TCDD). The series can be described thus: MTT cytotoxicity assay, TCDD-induced MCF7 cells. The series is classed as cell-based, human. To be noted: Homo sapiens, MCF7, read-out: IC50 MCF7 (TCDD). As for the experimental part: as §1, §7, §2, §3, §4, §5, §6

As a reminder, the pIC50 is −log10 of the IC50, conventionally taken in molar units.

The structures appear in SMILES notation. pIC50: −log10 of the molar value.

Take `COc1ccc(/C=C/c2cc(OC)c(OC)c(OC)c2)cc1` [DMU212, (E)-4,3′,4′,5′-tetramethoxystilbene]: the pIC50 in series [1] (Homo sapiens, 96 h, read-out: IC50 MDA468) was 9.00; in series [2], 5.59; in series [3], < 4.00; in series [4], 5.37; in series [7], 6.92. Further, the results for the “TS = tumour selectivity = IC50 MCF10A/IC50 MDA468” value in series [1] and in series [1] (listed as 212) were “over 4000” and 4300, respectively. In addition, the hepatotoxicity entry in series [5] is recorded as “without any obvious signs of hepatoxicity”. In series [5], the “steady state level in the liver” value is “up to 0.7 nmol/g tissue”. Besides, in series [6], the “substrate for CYP1 enzymes” value is listed as “substrate for CYP1 enzymes”.
